What was measured:
Experiment in all cases: Bliss excess, mean over the matrix (fraction); higher = more synergy
[1] = tested on: CML-T1 (Chronic Myelogenous Leukemia)
How it was run: (§1)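 Cell lines grown in DMEM/F12 or RPMI with 10% FBS were plated in 1536-well plates and held 24 hours at 37°C, 5% CO2 before 72 hours of exposure to two-drug dose matrices, with DMSO typically at 0.2%. CellTiter-Glo 2.0 luminescence gave viability, which was converted to inhibition. Vehicle wells were set to 0 and blank wells to 1. Combination Emax is the second-highest inhibition in the matrix, and Bliss excess is the observed combination effect minus the expected EA + EB − EA·EB, where EA and EB are the single-agent effects.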

[2] = tested on: RMG-I (Ovarian Carcinoma)
How it was run: as §1

[3] = tested on: FLO-1 (Esophageal Adenocarcinoma)
How it was run: as §1

[4] = tested on: NCI-H196 (Small Cell Lung Carcinoma)
How it was run: as §1

[5] = tested on: NCI-H1623 (Lung Adenocarcinoma)
How it was run: as §1

[6] = tested on: LOUCY (T-Lymphoblastic Leukemia)
How it was run: as §1

[7] = tested on: RL95-2 (Endometrial Carcinoma)
How it was run: as §1

[8] = tested on: LAMA-84 (Chronic Myelogenous Leukemia)
How it was run: as §1

[9] = tested on: OCI-AML5 (Acute Myeloid Leukemia)
How it was run: as §1

[10] = tested on: NKM-1 (Acute Myeloid Leukemia)
How it was run: as §1

[11] = tested on: SW684 (Other Solid Carcinomas)
How it was run: as §1

[12] = tested on: SK-MM-2 (Plasma Cell Myeloma)
How it was run: as §1

[13] = tested on: PANC-02-03 (Pancreatic Carcinoma)
How it was run: as §1

CHL-1 (Melanoma) = tested on: CHL-1 (Melanoma)
How it was run: as §1

786-0 (Kidney Carcinoma) = tested on: 786-0 (Kidney Carcinoma)
How it was run: as §1

[14] = tested on: NCI-H1563 (Lung Adenocarcinoma)
How it was run: as §1

[15] = tested on: Calu-6 (Non-Small Cell Lung Carcinoma)
How it was run: as §1

HuO-3N1 (Osteosarcoma) = tested on: HuO-3N1 (Osteosarcoma)
How it was run: as §1

[16] = tested on: JHH-1 (Hepatocellular Carcinoma)
How it was run: as §1

| Compound | Bliss excess [1] | Bliss excess [2] | Bliss excess [3] | Bliss excess [4] | Bliss excess [5] | Bliss excess [6] | Bliss excess [7] | Bliss excess [8] | Bliss excess [9] | Bliss excess [10] | Bliss excess [11] | Bliss excess [12] | Bliss excess [13] | Bliss excess (CHL-1 (Melanoma)) | Bliss excess (786-0 (Kidney Carcinoma)) | Bliss excess [14] | Bliss excess [15] | Bliss excess (HuO-3N1 (Osteosarcoma)) | Bliss excess [16] |
| --- | --- | --- | --- | --- | --- | --- | --- | --- | --- | --- | --- | --- | --- | --- | --- | --- | --- | --- | --- |
| C[C@@H](c1ccc2nccn2c1)n1nnc2ncc(-c3cnn(C)c3)nc21 [Savolitinib] + CC1(C)CCC(CN2CCN(c3ccc(C(=O)NS(=O)(=O)c4ccc(NCC5CCOCC5)c([N+](=O)[O-])c4)c(Oc4cnc5[nH]ccc5c4)c3)CC2)=C(c2ccc(Cl)cc2)C1 [Venetoclax] (first compound max 1 µM, 7x7, partner max 1 µM) | -0.0156 | -0.0756 | -0.0752 | -0.067 | -0.046 | -0.0803 | -0.0481 | -0.0111 | -0.031 | 0.0653 | -0.0461 | -0.019 | -0.0231 | -0.0511 | -0.0848 | -0.0691 | -0.0539 | -0.0708 | -0.0529 |
| COc1nnc2ccc(N3CCC(c4ccc(OCCN5CCN(C)C(=O)[C@H]5C)cc4)CC3)nn12 [AZD5153] + C[C@@H]1COCCN1C2=NC(=NC(=C2)C3(CC3)[S@](=N)(=O)C)C4=C5C=CNC5=NC=C4 [AZD6738] (first compound max 1 µM, 7x7, partner max 10 µM) | -0.0011 | -0.0261 | 0.0257 | 0.036 | -0.0247 | -0.0232 | 0.0017 | 0.0202 | 0.0158 | -0.0373 | -0.042 | -0.0831 | -0.0366 | -0.0569 | 0.0479 | 0.0203 | -0.0567 | 0.0085 | 0.0386 |
| COc1nnc2ccc(N3CCC(c4ccc(OCCN5CCN(C)C(=O)[C@H]5C)cc4)CC3)nn12 [AZD5153] + C=CCn1c(=O)c2cnc(Nc3ccc(N4CCN(C)CC4)cc3)nc2n1-c1cccc(C(C)(C)O)n1 [AZD1775] (first compound max 1 µM, partner max 1 µM) | -0.116 | -0.0187 | 0.0001 | -0.0574 | -0.0101 | -0.0527 | 0.0344 | -0.0311 | -0.0106 | -0.124 | -0.054 | -0.0484 | -0.0823 | -0.0434 | -0.0163 | 0.0474 | -0.0511 | -0.0584 | 0.0173 |
| Cn1cnc2c(F)c(Nc3ccc(Br)cc3Cl)c(C(=O)NOCCO)cc21 [Selumetinib] + CC(C)n1c(=O)n(C)c2cnc3cc(F)c(-c4ccc(OCCCN5CCCCC5)nc4)cc3c21 [AZD1390] (first compound max 10 µM, 7x7, partner max 0.3 µM) | -0.0441 | -0.0268 | -0.0276 | -0.0561 | 0.0076 | -0.0166 | -0.0663 | -0.0309 | -0.0198 | -0.107 | -0.0616 | -0.0084 | -0.0139 | -0.0482 | -0.0587 | -0.0229 | -0.0588 | -0.0618 | -0.0268 |
| COc1nnc2ccc(N3CCC(c4ccc(OCCN5CCN(C)C(=O)[C@H]5C)cc4)CC3)nn12 [AZD5153] + CCN(CCO)CCCOc1ccc2c(Nc3cc(CC(=O)Nc4cccc(F)c4)[nH]n3)ncnc2c1 [AZD2811] (first compound max 1 µM, 7x7, partner max 1 µM) | -0.0571 | -0.0479 | -0.0165 | -0.0285 | -0.0117 | 0.0305 | -0.154 | 0.0006 | -0.0282 | -0.0201 | -0.0767 | -0.0366 | -0.0809 | 0.0413 | -0.0274 | -0.0508 | -0.0563 | -0.0705 | -0.0292 |
| COc1cc2ncnc(Nc3ccc(F)c(Cl)c3)c2cc1OCCCN1CCOCC1 [Gefitinib] + CC(C)n1c(=O)n(C)c2cnc3cc(F)c(-c4ccc(OCCCN5CCCCC5)nc4)cc3c21 [AZD1390] (first compound max 10 µM, 7x7, partner max 0.3 µM) | -0.0252 | -0.0346 | -0.0696 | -0.0685 | -0.0268 | 0.0024 | -0.0454 | -0.0328 | -0.051 | -0.0581 | -0.0557 | -0.0267 | -0.0431 | -0.0472 | -0.0652 | -0.0757 | -0.0556 | -0.0756 | -0.0772 |
| CC(=O)c1c(C)c2cnc(Nc3ccc(N4CCNCC4)cn3)nc2n(C2CCCC2)c1=O [Palbociclib] + Cn1cnc2c(F)c(Nc3ccc(Br)cc3Cl)c(C(=O)NOCCO)cc21 [Selumetinib] (first compound max 10 µM, 7x7, partner max 10 µM) | -0.013 | -0.0165 | 0.0209 | -0.0617 | 0.0398 | -0.0138 | -0.0144 | -0.0263 | 0.0868 | -0.0194 | -0.018 | -0.021 | 0.0334 | -0.0342 | 0.0079 | 0.0092 | -0.102 | -0.0601 | -0.0693 |
| CC(=O)c1c(C)c2cnc(Nc3ccc(N4CCNCC4)cn3)nc2n(C2CCCC2)c1=O [Palbociclib] + CC1(C)CCC(CN2CCN(c3ccc(C(=O)NS(=O)(=O)c4ccc(NCC5CCOCC5)c([N+](=O)[O-])c4)c(Oc4cnc5[nH]ccc5c4)c3)CC2)=C(c2ccc(Cl)cc2)C1 [Venetoclax] (first compound max 10 µM, 7x7, partner max 1 µM) | -0.0899 | -0.0541 | -0.019 | -0.0608 | 0.011 | 0.083 | 0.0133 | 0.0201 | 0.0436 | 0.0548 | -0.0492 | -0.0265 | -0.0319 | -0.0357 | 0.0042 | -0.0079 | 0.0322 | -0.0312 | -0.0601 |
| CS(=O)(=O)CCNCc1ccc(-c2ccc3ncnc(Nc4ccc(OCc5cccc(F)c5)c(Cl)c4)c3c2)o1 [Lapatinib] + C[C@@H](Oc1cc(-c2cnn(C3CCNCC3)c2)cnc1N)c1c(Cl)ccc(F)c1Cl [Crizotinib] (first compound max 10 µM, 7x7, partner max 10 µM) | -0.106 | -0.0367 | -0.0535 | -0.0564 | 0.0555 | -0.102 | -0.0535 | 0.001 | -0.003 | -0.0604 | -0.0389 | -0.0207 | -0.0617 | -0.0393 | -0.0666 | 0.0087 | 0.0122 | -0.0423 | -0.0906 |
| COc1nnc2ccc(N3CCC(c4ccc(OCCN5CCN(C)C(=O)[C@H]5C)cc4)CC3)nn12 [AZD5153] + Cc1c2c(nn1C)CSCc1cc(n(C)n1)CSc1cc(c3ccccc3c1)OCCCc1c(C(=O)O)n(C)c3c-2c(Cl)ccc13 [AZD5991] (first compound max 1 µM, 7x7, partner max 1 µM) | 0.0065 | -0.0553 | -0.0352 | 0.0074 | 0.049 | 0.0187 | -0.0414 | 0.005 | 0.134 | -0.0491 | -0.108 | -0.0156 | -0.0493 | 0.0613 | -0.0166 | 0.0341 | -0.131 | -0.0118 | 0.106 |
| CC(=O)c1c(C)c2cnc(Nc3ccc(N4CCNCC4)cn3)nc2n(C2CCCC2)c1=O [Palbociclib] + Cc1c2c(nn1C)CSCc1cc(n(C)n1)CSc1cc(c3ccccc3c1)OCCCc1c(C(=O)O)n(C)c3c-2c(Cl)ccc13 [AZD5991] (first compound max 10 µM, 7x7, partner max 1 µM) | -0.0233 | -0.061 | 0.0084 | -0.0784 | -0.0321 | 0.0154 | -0.0841 | 0.0056 | 0.0572 | -0.0003 | -0.0906 | 0.0033 | -0.0522 | 0.0344 | 0.0201 | -0.098 | -0.0227 | -0.0972 | -0.0111 |
| C[C@@H](c1ccc2nccn2c1)n1nnc2ncc(-c3cnn(C)c3)nc21 [Savolitinib] + Cc1c2c(nn1C)CSCc1cc(n(C)n1)CSc1cc(c3ccccc3c1)OCCCc1c(C(=O)O)n(C)c3c-2c(Cl)ccc13 [AZD5991] (first compound max 1 µM, 7x7, partner max 1 µM) | 0.0118 | -0.0327 | -0.032 | -0.0675 | -0.0195 | 0.0369 | -0.0676 | 0.0136 | -0.0178 | -0.0069 | -0.0608 | -0.0395 | -0.0374 | -0.023 | -0.0331 | -0.0271 | -0.0124 | -0.0631 | -0.0462 |
| CC(=O)c1c(C)c2cnc(Nc3ccc(N4CCNCC4)cn3)nc2n(C2CCCC2)c1=O [Palbociclib] + CN(CC[C@H](CSC1=CC=CC=C1)NC2=C(C=C(C=C2)S(=O)(=O)NC(=O)C3=CC=C(C=C3)N4CCC(CC4)[C@H](C5=CC=CC=C5C6=CC=C(C=C6)Cl)O)S(=O)(=O)C(F)(F)F)CCO [AZD4320] (first compound max 10 µM, 7x7, partner max 1 µM) |  |  |  | -0.0489 | -0.0783 |  | -0.0566 |  | -0.0327 |  |  |  |  |  | -0.0388 | -0.0292 | 0.0279 | -0.0289 | -0.0291 |
| C[C@@H](c1ccc2nccn2c1)n1nnc2ncc(-c3cnn(C)c3)nc21 [Savolitinib] + CN(CC[C@H](CSC1=CC=CC=C1)NC2=C(C=C(C=C2)S(=O)(=O)NC(=O)C3=CC=C(C=C3)N4CCC(CC4)[C@H](C5=CC=CC=C5C6=CC=C(C=C6)Cl)O)S(=O)(=O)C(F)(F)F)CCO [AZD4320] (first compound max 1 µM, 7x7, partner max 1 µM) |  |  |  | -0.0847 | -0.0231 |  | -0.0297 |  | -0.0418 |  |  |  |  |  | -0.0642 | -0.0266 | -0.005 | -0.0513 | -0.0341 |
| COc1nnc2ccc(N3CCC(c4ccc(OCCN5CCN(C)C(=O)[C@H]5C)cc4)CC3)nn12 [AZD5153] + CN(CC[C@H](CSC1=CC=CC=C1)NC2=C(C=C(C=C2)S(=O)(=O)NC(=O)C3=CC=C(C=C3)N4CCC(CC4)[C@H](C5=CC=CC=C5C6=CC=C(C=C6)Cl)O)S(=O)(=O)C(F)(F)F)CCO [AZD4320] (first compound max 1 µM, 7x7, partner max 1 µM) |  |  |  | 0.0277 | -0.0087 |  | 0.0571 |  | 0.0299 |  |  |  |  |  | 0.0508 | 0.0003 | -0.0429 | 0.0645 | 0.0585 |

From the supplement of paper PMC11061612
